Laboratory results published in paper PMC3885398, “Evaluation of the Antitumor Effects of BPR1J-340, a Potent and Selective FLT3 Inhibitor, Alone or in Combination with an HDAC Inhibitor, Vorinostat, in AML Cancer” (PLoS ONE, 2014).

Tests used:
HCC827 = assay: Cell viability MTS assay; type: cell-based; details: Homo sapiens; HCC827, non-leukemia; read-out: Proliferation GI50
Procedure: (§1) Cell viability was assessed with an MTS assay as carried out as the method described previously. Cells were seeded in 96-well plates at a density of 10,000 cells per well for 16 hours and then treated with vehicle or various concentrations of compound in medium. The change in viable cells was quantitated using the MTS method (Promega, Madison, WI, USA) according to the manufacturer's recommended protocol or by cell counting under a microscope. The GC50 value was defined as the amount of compound that caused a 50% reduction in cell viability in comparison with DMSO-treated (vehicle) control and was calculated using Prism version 4 software (Graph-Pad Software, Inc., San Diego, CA, USA). The data are presented as the mean ± S.D. from three independent experiments. Cell growth were measured by trypan blue dye exclusion method. Cells (1×10^4 mL^−1) were cultured in 12-well plates for 24 hours and then treated with different amounts of test compound and the same volumes of vehicle for 72 hours. The number of viable cells was counted by trypan blue dye staining using a hemocytometer at the indicated time point after drug treatment. The result was expressed as the mean ± S.D. from triplicate determinations.

A431 = assay: Cell viability MTS assay; type: cell-based; details: Homo sapiens, A-431; A431, non-leukemia; read-out: Proliferation GI50
Procedure: as §1

NCIH460 = assay: Cell viability MTS assay; type: cell-based; details: Homo sapiens, NCI-H460; NCIH460, non-leukemia; read-out: Proliferation GI50
Procedure: as §1

H2228 = assay: Cell viability MTS assay; type: cell-based; details: Homo sapiens, NCI-H2228; H2228, non-leukemia; read-out: Proliferation GI50
Procedure: as §1

Huh7 = assay: Cell viability MTS assay; type: cell-based; details: Homo sapiens, Huh-7; Huh7, non-leukemia; read-out: Proliferation GI50
Procedure: as §1

U937 = assay: Cell viability MTS assay; type: cell-based; details: Homo sapiens, U-937; U937, leukemia; read-out: Proliferation GI50
Procedure: as §1

HCT-116 = assay: Cell viability MTS assay; type: cell-based; details: Homo sapiens; HCT-116, non-leukemia; read-out: Proliferation GI50
Procedure: as §1

Hep3B = assay: Cell viability MTS assay; type: cell-based; details: Homo sapiens, non-leukemia, read-out: Proliferation GI50
Procedure: as §1

K562 = assay: Cell viability MTS assay; type: cell-based; details: Homo sapiens; K562, leukemia; read-out: Proliferation GI50
Procedure: as §1

RS4;11 = assay: Cell viability MTS assay; type: cell-based; details: Homo sapiens; RS4;11, leukemia, wild-type FLT3, FLT3-independent; read-out: Proliferation GI50 (GC50 in the text)
Procedure: as §1

RT4 = assay: Cell viability MTS assay; type: cell-based; details: Homo sapiens, RT-4; RT4, non-leukemia; read-out: Proliferation GI50
Procedure: as §1

MiaPaCa-2 = assay: Cell viability MTS assay; type: cell-based; details: Homo sapiens, MIA PaCa-2; MiaPaCa-2, non-leukemia; read-out: Proliferation GI50
Procedure: as §1

MKN45 = assay: Cell viability MTS assay; type: cell-based; details: Homo sapiens, MKN-45; MKN45, non-leukemia; read-out: Proliferation GI50
Procedure: as §1

Detroit551 = assay: Cell viability MTS assay; type: cell-based; details: Homo sapiens, Detroit 551; Detroit551, non-leukemia; read-out: Proliferation GI50
Procedure: as §1

H1975 = assay: Cell viability MTS assay; type: cell-based; details: Homo sapiens, NCI-H1975; H1975, non-leukemia; read-out: Proliferation GI50
Procedure: as §1

MCF-7 = assay: Cell viability MTS assay; type: cell-based; details: Homo sapiens, MCF7; MCF-7, non-leukemia; read-out: Proliferation GI50
Procedure: as §1

H1650 = assay: Cell viability MTS assay; type: cell-based; details: Homo sapiens, NCI-H1650; H1650, non-leukemia; read-out: Proliferation GI50
Procedure: as §1

MV4;11 cells = assay: Apoptosis induction, caspase-3 and PARP cleavage by Western blot; type: cell-based, human; details: MV4;11, 10 nM, 24 hours
Procedure: (§2) Cells were lysed in lysis buffer (50 mM Tris, pH 8.0, 150 mM NaCl, 1% Triton X-100, 0.5% sodium deoxycholate, 0.1% SDS, 1 mM sodium orthovanadate, 1 mM PMSF, and 1 mM DTT). Protein lysates were resolved by SDS-PAGE and transferred onto a polyvinylidene difluoride (PVDF) membrane (Millipore, Bedford, MA, USA). The membranes were immunoblotted with appropriate antibodies and detected using the SuperSignal reagent (Pierce, Rockford, IL, USA) followed by exposure to X-ray film.
(§3) As the inhibition of FLT3 signaling results in a loss of growth potential and an induction of apoptosis in FLT3-ITD expressing cells, the effects of BPR1J-340 on cell apoptotic response in FLT3-ITD^+ cells was investigated. The MOLM-13 and MV4;11 cells were treated with BPR1J-340 at different concentrations for 24 hours and analyzed for the induction of apoptosis using active caspase-3 and cleaved PARP (poly-ADP-ribose polymerase) analysis.
(§4) Figure 3 BPR1J-340 induces apoptosis in MOLM-13 and MV4;11 cells. […] MOLM-13 (A) and MV4;11 (B) cells were treated with BPR1J-340 at the indicated concentrations for 24 hours, and the cell lysates were then subjected to Western blot analysis using antibodies against caspase-3 and PARP (poly-ADP-ribose polymerase). (full length caspase-3 (FL-caspase-3), cleavage of caspase-3 (CL-caspase-3), full length poly(ADP-ribose) polymerase (FL-PARP), cleavage of PARP (CL-PARP)).

MOLM-13 cells = assay: as above; type: cell-based, human; details: MOLM-13, 10 nM, 24 hours
Procedure: as §2, §3, §4

`CCc1cc(NC(=O)NCc2ccc(-c3cc(NC(=O)c4ccc(CN5CCN(C)CC5)cc4)[nH]n3)cc2)no1` [BPR1J-340, N1-(3-4-[([(5-ethyl-3-isoxazolyl)amino]carbonylamino)methyl]phenyl-1H-5-pyrazolyl)-4-[(4-methylpiperazino)methyl]benzamide] gave a GI50 (HCC827) of 2.47 µM, a GI50 (A431) of 6.57 µM and a GI50 (NCIH460) of 13.2 µM. It also gave a GI50 (H2228) of 2.52 µM, a GI50 (Huh7) of 9.74 µM and a GI50 (U937) of 2.4 µM. It also gave a GI50 (HCT-116) of 9.33 µM, a GI50 (Hep3B) of 8.31 µM and a GI50 (K562) of 6.37 µM. The GI50 (RS4;11) was 0.77 ± 0.36 µM, the GI50 (RT4) was 7.03 µM and the GI50 (MiaPaCa-2) was 9.96 µM. It also gave a GI50 (MKN45) of 3.58 µM, a GI50 (Detroit551) of 8.34 µM and a GI50 (H1975) of 2.61 µM. The GI50 (MCF-7) was 11.3 µM, the GI50 (H1650) was 3.73 µM and the “cleavage of caspase-3 and PARP (apoptosis)” value (MV4;11 cells) was “significant cleavage”. The “cleavage of caspase-3 and PARP (apoptosis)” value (MOLM-13 cells) was “significant cleavage”.
